Target: T1, ribose binding protein RbsB (Escherichia coli, UniProt P02925)
T1 sequence (P02925 26-296): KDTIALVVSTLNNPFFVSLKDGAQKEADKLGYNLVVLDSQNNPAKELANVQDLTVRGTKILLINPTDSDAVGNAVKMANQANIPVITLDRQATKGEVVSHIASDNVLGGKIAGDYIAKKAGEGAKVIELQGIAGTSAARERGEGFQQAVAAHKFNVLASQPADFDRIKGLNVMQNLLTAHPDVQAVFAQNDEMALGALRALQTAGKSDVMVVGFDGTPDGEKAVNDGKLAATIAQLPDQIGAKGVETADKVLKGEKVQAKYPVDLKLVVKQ
Experiment: ITC with purified protein, […]°C, one-site fit

Kd: 125 nM
Structure (SMILES): O=C[C@H](O)[C@H](O)[C@H](O)CO [ribose]

— publication PMC4088097 (Scientific Reports, 2014)
